Patent US20110126300A1, “High Through-Put Method of Screening Compounds for Pharmacological Activity” (priority 2005, published 2011)

Legend:
[1] = tested on: wild type zebrafish larvae; assay: PTZ-induced seizure assay in larvae; assay type: in vivo; conditions: PTZ 15 uM, 4 day post-fertilization wild type larvae
Protocol: To assay small molecule compounds with anti-seizure activity, 4 day post-fertilization wild type zebrafish were placed in 96-well plates (5 larvae per well) and incubated in the test compounds (20 uM) as above, for either 2 or 12 hrs. Subsequently, the larvae were administered pentylenetetrazole (PTZ; 15 uM) and observed for seizure activity (i.e., a change in phenotype). […] This activity persists for approximately 20 minutes and then culminates in a tonic convulsion that abolishes movement and normal posture. Prior to or after onset of the seizure activity, the small molecule test compound was administered to the larvae and the response of the fish assessed visually or by digital recording.
Scoring was based upon whether the test compound was able to inhibit or modify the seizure activity of the larvae.

[2] = tested on: wild type zebrafish larvae; assay: Wild type larvae exposed to compound, PED6 imaging of intestine contour; assay type: in vivo, zebrafish (Danio rerio); conditions: 6 dpf wild type larvae, 2 hour exposure to PED6; FIG. 2B
Protocol: FIGS. 2A-2D photographically show lateral fluorescent images of 6 dpf zebrafish larvae following 2 hour exposure to fluorescent lipid PED6.
For rescue experiments, 1-cell stage embryos derived from pair-wise mating of heterozygous mlt carriers were injected with either the MT-mmpa, morpholino alone or in combination with the β4 integrin morpholino. Subsequently, all embryos were injected with either 0.375 or 0.1875 pg of tissue inhibitor of metalloproteinases 2 (TIMP2 inhibitor) (PF021; Oncogene Research Products, now Calbiochem, San Diego, Calif.) at 48 hpf. Alternatively, 2.5 dpf or 3 dpf larvae were incubated in the TGF-β Type I receptor inhibitor SB 431542, 100 μM in embryo media. Morpholino sequences were as identified in Wallace et al., supra, 2005b for smooth muscle myosin heavy chain, β4 integrin, and MT-mmpa.

[3] = tested on: meltdown (mlt) mutant larvae; assay: Rescue of the mlt mutant phenotype by compound exposure, read out with fluorescent lipid PED6 in the posterior intestine; assay type: in vivo, zebrafish (Danio rerio)
Protocol: For testing, the embryos were then cultured in the presence of the test compound(s) overnight or up to 96 hrs at 28.5° C., for example, in 96-well plates. Mutant larvae and mutants reared in the presence of small molecule compounds may be bathed in the fluorescent lipid PED6 or fluorescent microspheres, which outline the digestive tract lumen and can be seen by visual inspection or by a commercially-available fluorescent plate scanner, typically by 96-120 hours post fertilization (hpf). Although signals that regulate regional epithelial differentiation and renewal are poorly understood, in meltdown (mlt), the posterior gut is disorganized and bears an expanded mesenchyme (Briggs, Am. J. Physiol. Regulatory Integrative Comp. Physiol. 282: R3-9 (2002)). Neither fluorescent marker enters the posterior intestine of mlt mutants because the intestinal lumen is obstructed by the massive cysts that form in all mlt mutant larvae.
No effect: A test compound was considered to have no effect if none of the mlt mutant larvae show fluorescent lipid in the posterior intestine.
When no mutants were observed, one possibility was that the test compound produced a complete rescue of the mutant phenotype. The other possibility was that there were never any mutants present in the well. When embryos derived from matings of heterozygous mlt/+ fish are used for these assays, then with 8-10 embryos per test compound, the latter possibility may be calculated to occur with a frequency of 0.01%.
Partial rescue: Partial rescue was considered when mutants or the mutant phenotype was present, but the fluorescent markers were present in the posterior intestine.
In the present assays, mosaic zebrafish were generated in which homozygous mlt/mlt cells have replaced the native germline of wild type fish. 100% of the offspring derived from pair wise matings of such modified zebrafish are homozygous for the mlt mutation. Thus, all of the larvae placed in each well of the 96-well plate are mlt mutants, greatly enhancing the efficiency of each assay. […]

| SMILES | duration of seizure activity before tonic convulsion [1] | intestine contour in wild type larvae [2] | posterior intestinal PED6 fluorescence and intestine contour in mlt larvae ([3]; 6 dpf mlt larvae, 2 hour exposure to PED6, FIG. 2D) | rescue of the mlt mutant phenotype (fluorescent lipid in posterior intestine) ([3]; compound added ~60 hpf, PED6 at 96 hpf, imaged at 120 hpf) | intestinal cysts versus untreated mlt larvae ([3]; mlt larvae scored at 5 dpf, treated at 2.5 dpf or 3 dpf, 100 μM in embryo media) |
| --- | --- | --- | --- | --- | --- |
| C1CCc2nnnn2CC1 [PTZ, pentylenetetrazole] | approximately 20 minutes |  |  |  |  |
| NC(=O)c1ccc(-c2nc(-c3ccc4c(c3)OCO4)c(-c3ccccn3)[nH]2)cc1 [SB431542] |  | normal intestine contour | posterior intestinal fluorescence and the contour is normal | rescuing the mutant phenotype | far fewer cysts than untreated mlt larvae |
